For one experiment, the target named is Enteropeptidase (Homo sapiens, UniProt P98073). Briefly: Inhibition Assay: Using a 96 well plate (#3915, Costar), a test compound (25 μL), 400 mM Tris-HCl buffer (pH 8.0, 25 μL) and 0.5 mg/mL fluorescence enzyme substrate (Gly-Asp-Asp-Asp-Asp-Lys-β-Naphtylamide, 25 μL) were mixed, and recombinant human enteropeptidase (R&D Systems, Inc., 25 μL) was added. Using a fluorescence plate reader fmax (Molecular Devices, Inc.), the reaction rate was measured from the time-course changes at excitation wavelength 320 nm and fluorescence wavelength 405 nm.

The target in the next experiment is Serine protease 1 (Homo sapiens, UniProt P07477). Briefly: Inhibition Assay: Using a 96 well plate (#3915, Costar), a test compound (25 μL) was mixed with 20 μM fluorescence enzyme substrate (Boc-Phe-Ser-Arg-AMC, 50 μL) mixed with 200 mM Tris-HCl buffer (pH 8.0), and human trypsin (Sigma, 25 μL) was added. Using a fluorescence plate reader fmax (Molecular Devices, Inc.), the reaction rate was measured from the time-course changes at excitation wavelength 355 nm and fluorescence wavelength 460 nm.

In ChEMBL document CHEMBL3639122, “Heteroarylcarboxylic acid ester derivative” (2015) one finds Ki data, which are given here for one compound.

Chain of Serine protease 1 (P07477 whole entry): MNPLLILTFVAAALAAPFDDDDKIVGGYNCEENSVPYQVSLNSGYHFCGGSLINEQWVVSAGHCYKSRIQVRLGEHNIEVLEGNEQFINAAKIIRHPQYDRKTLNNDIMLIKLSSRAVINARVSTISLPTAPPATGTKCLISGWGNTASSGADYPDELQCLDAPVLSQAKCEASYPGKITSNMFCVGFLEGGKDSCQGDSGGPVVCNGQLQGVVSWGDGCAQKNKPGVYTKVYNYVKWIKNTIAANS
Chain of Enteropeptidase (P98073 2-784 limits assumed): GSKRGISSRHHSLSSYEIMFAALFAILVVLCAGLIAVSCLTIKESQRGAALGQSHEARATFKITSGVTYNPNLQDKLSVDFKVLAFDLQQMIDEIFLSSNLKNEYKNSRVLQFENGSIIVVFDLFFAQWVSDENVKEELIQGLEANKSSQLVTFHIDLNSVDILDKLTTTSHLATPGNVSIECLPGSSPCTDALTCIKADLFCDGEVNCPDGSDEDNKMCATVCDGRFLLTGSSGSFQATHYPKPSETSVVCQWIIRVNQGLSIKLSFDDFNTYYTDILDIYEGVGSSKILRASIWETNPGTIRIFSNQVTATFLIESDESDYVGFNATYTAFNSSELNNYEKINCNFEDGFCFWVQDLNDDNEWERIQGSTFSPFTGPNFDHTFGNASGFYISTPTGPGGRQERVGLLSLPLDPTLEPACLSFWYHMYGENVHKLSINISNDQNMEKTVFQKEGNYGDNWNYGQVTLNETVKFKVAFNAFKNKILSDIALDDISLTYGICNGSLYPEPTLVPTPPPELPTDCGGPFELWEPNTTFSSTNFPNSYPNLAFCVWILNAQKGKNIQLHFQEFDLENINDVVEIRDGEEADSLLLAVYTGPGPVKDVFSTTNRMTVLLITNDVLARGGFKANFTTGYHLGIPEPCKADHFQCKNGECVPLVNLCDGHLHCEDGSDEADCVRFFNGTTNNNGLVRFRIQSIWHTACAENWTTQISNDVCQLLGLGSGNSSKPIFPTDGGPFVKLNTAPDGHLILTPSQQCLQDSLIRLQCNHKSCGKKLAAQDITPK
Chain of Enteropeptidase (P98073 785-1019 limits assumed): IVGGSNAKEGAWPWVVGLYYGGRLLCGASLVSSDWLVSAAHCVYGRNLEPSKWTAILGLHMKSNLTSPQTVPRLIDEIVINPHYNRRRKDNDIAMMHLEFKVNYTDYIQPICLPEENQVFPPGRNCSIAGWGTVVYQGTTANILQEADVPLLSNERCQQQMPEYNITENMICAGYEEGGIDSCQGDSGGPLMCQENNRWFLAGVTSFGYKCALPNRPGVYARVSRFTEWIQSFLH

One may read the Ki as the dissociation constant of the complex between target and ligand, obtained from inhibition or displacement. Turning to `CCC(CC)(Cc1ccc(C(=O)Oc2ccc(C(=N)N)cc2F)s1)C(=O)N[C@@H](CCC(=O)O)C(=O)O`, the Ki on Enteropeptidase was determined as 0.27 nM; at Serine protease 1 it was 2.01 nM.
